From patent US6949516B2, “Dipeptide apoptosis inhibitors and the use thereof” (Cytovia, Inc., priority 1997, dated 2005)

How the values were obtained:
HeLa cells = experiment: Cell death assay with HeLa cells, quantitative (calcein AM), TNF-α/CHX challenge; format: cell-based
Procedure: The cytoprotective properties of Cbz-Val-Asp(OMe)CH2F were tested using HeLa cells challenged with tumor necrosis factor-alpha (TNF-α) and cycloheximide (CHX). This is a well-characterized cell culture model of apoptosis which is commonly used to analyze anti-apoptotic agents. Two types of experiments were performed: a qualitative assessment of cell death by visualization of the cells using phase contrast microscopy; and a quantitative assessment of cell death using the fluorescent dye calcein AM.
For quantitative assays, the degree of cell survival in the presence of test compounds is analyzed quantitatively using the indicator dye calcein AM. This dye is taken up and converted to a fluorescent derivative by living cells; the amount of activated dye in each well can then be assayed in a fluorometric plate reader and the degree of fluorescence is used as a measure of the number of surviving cells. For these assays, HeLa cells are seeded in 48-well plates at a density of 25,000 cells per well in 0.4 mL of Minimal Essential Medium containing 2 mM glutamine and 10% fetal bovine serum. 24 hours later the plating medium is removed and 0.5 mL of fresh medium containing test compound at various concentrations is added. The cells are pre-incubated with test compound for 2 hours at 37° C. in a CO2 incubator and then TNF-α and CHX are added at final concentrations of 25 ng/mL and 30 μg/mL, respectively. After a 24 hour incubation period, the cultures are washed twice with serum-free, phenol red-free Ham's F12 to remove dead cells and 125 μL of Ham's F12 containing 8 μM calcein AM is added. […] The data are expressed as “Percent Control,” which is calculated by the following equation: Percent Control=(Calcein AM Signal in the Presence of Test Compound+TNF-α and CHX/(Calcein AM Signal in the Presence of CHX Only)×100% The use of CHX-treated cultures as controls, rather than untreated cultures, allows one to correct for the cytostatic effects of CHX. However, because CHX by itself is also a mild inducer of apoptosis in HeLa cells, strong anti-apoptotic drugs will give a Percent Control value greater than 100%.
Quantitative experiments using calcein AM, as described above, corroborate the results obtained by microscopic examination. FIGS. 4 and 5 illustrate the results of two such experiments where the cytoprotective properties of Cbz-Val-Asp(OMe)-CH2F (a) were compared to BOC-Asp(OMe)-CH2F (b) (FIG. 5) and Cbz-Asp(OMe)-Glu(OMe)-Val-Asp(OMe)-CH2F (SEQ ID NO:1) (c) (FIG. 4) at three concentrations (0.5, 5 and 50 μM). […] By contrast, Cbz-Val-Asp(OMe)-CH2F (a) is as effective a cytoprotectant at 0.5 μM as Cbz-Asp(OMe)-Glu(OMe)-Val-Asp(OMe)-CH2F (SEQ ID NO:1) […] is at 50 μM (FIG. 4).
In order to determine the effect of Cbz-Val-Asp(OMe)-CH2F at low doses, HeLa cells were treated with a range of concentrations from 0.05 μM to 1 μM.

[1] = tested on: rat transient focal ischemia model; experiment: Rat transient focal ischemia model; format: in vivo; conditions: for reduction of cortical infarction: p<0.05
Description: (i) Preparative Surgery: Male Fischer-344 rats (Harlan Sprague Dawley, Calif.) weighing 200-240 g, were used. Animals were initially anesthetized with 3% halothane in a mixture of 30% oxygen and 70% air. Halothane level were reduced to 1.5% for maintenance of anesthesia throughout surgery. […] (b) Arterial catheter implantation: the femoral artery were cannulated to allow monitoring of the blood pressure, and other physiological conditions include pO2, pCO2, pH, glucose, hematocrite, during ischemia, initial drug administration, and the time of arterial reperfusion. Both arterial and venous catheters were exteriorized through the back of the animal, to allow free movement. (c) A PhysioTel Transmitter (Data Sciences International, Mich.) were implanted into the peritoneal cavity to remotely monitor the body temperature of the animals for 22 hours.
(ii) Physiological parameters: Core body temperature was maintained at 37.5° C. during surgery, using a YSI Reusable Temperature Probe (YSI Co. Inc., Yellow Spring, Ohio) connected to a YSI Temperature Control Unit (Model 73A, YSI Co. Inc., Ohio) and a Electric Heating Pad (Model 756, Sunbean-Oster Co. Inc., Hattiesburg, Miss.). Following ischemia, the PhysioTel Transmitter was activated and core body temperature was recorded every 5 minutes. Systemic blood pressure was monitored throughout surgery, during intravenous drug infusion (bolus), and 1, 2, 3, and 4 hours after the onset of ischemia. Other physiological conditions, including pO2, pCO2, pH, glucose, and hematocrite were examined at the time of arterial occlusion and reperfusion.
(iii) Transient focal ischemia model: Following preparative surgery, a ventral midline cervical incision was made to expose both CCAs. The right CCA was permanently ligated with 4-o silk ligature, while the left CCA was clamped with an atraumatic aneurysm clip. A 1-cm incision perpendicular to and bisecting a line between the lateral canthus of the right eye and the external auditory canal was made. The underlying temporalis muscle was excised and retracted and under direct visualization with the aid of a dissecting microscope (Model SZ-STB1, Olympus, Japan), the middle cerebral artery (MCA) was exposed through a 2 mm burr hole drilled 2-3 mm rostral to the fusion of the zygomatic arch and the squamosal bone. Drilling was done under a continuous irrigation of physiological saline. The dura was cut and retracted to expose the MCA in the rhinal fissure. A Codman micro-aneurysm clip (No. 1) was used to temporarily occlude the MCA as it crosses the rhinal fissure. […] The areas of cortical and subcortical infarction were measured blindly with imaging processing software, and the volume of infarction was calculated by adding up individual measures with known thickness. […]

Structure (SMILES): COC(=O)CC(NC(=O)C(NC(=O)OCc1ccccc1)C(C)C)C(=O)CF (stereo not drawn) [Cbz-Val-Asp(OMe)-CH2F, Z-Val-Asp-fmk Methyl Ester]
- protection of HeLa cells from TNF-α/CHX (calcein AM) (HeLa cells; 0.5 μM): highly active
- concentration giving significant protection of HeLa cells from TNF-α/CHX (HeLa cells; range 0.05 μM to 1 μM tested): ≤ 0.25 µM

Structure (SMILES): CC(C)[C@H](NC(=O)OCc1ccccc1)C(=O)NC(CC(=O)O)C(=O)CF (stereo partly drawn) [Cbz-Val-Asp-CH2F, Z-Val-Asp-fmk]
- reduction of cortical infarction ([1]; Experiment 1: rat, 20 mg/kg IV bolus 10 minutes after onset of ischemia + 5 mg/kg/hr IV infusion for 6 h): 46%
- reduction of cortical infarction ([1]; Experiment 2: rat, 20 mg/kg IV bolus 10 minutes after onset of ischemia + 5 mg/kg/hr IV infusion for 12 h): 57%
- tolerability following acute IV dosing ([1]; rat): well tolerated
- changes in blood pressure, blood gas, or temperature following drug administration ([1]; rat, 20 mg/kg IV bolus + 5 mg/kg/hr infusion): no changes
